Data on 26 compounds can be found in patent US8993554B2, “Tetrahydroquinoline derivatives useful as bromodomain inhibitors” (GlaxoSmithKline LLC, priority 2011, dated 2015).

Structures can show the parent of a compound that is named as a salt.

Broadly, the IC50 is the concentration that gives 50% inhibition.

The test system of the experiment is LPS induced IL-6 secretion from whole blood. In words: Measurement of LPS Induced IL-6 Secretion from Whole Blood. In kind it is cell-based. As to conditions: IL-6 by immunoassay, LPS 200 ng/ml, 24 hours. The protocol: Activation of monocytic cells by agonists of toll-like receptors such as bacterial lipopolysaccharide (LPS) results in production of key inflammatory mediators including IL-6. Such pathways are widely considered to be central to the pathophysiology of a range of auto-immune and inflammatory disorders.
Compounds to be tested are diluted to give a range of appropriate concentrations of which 1 μl of the diluted stocks is added to a 96 well plate. Following addition of whole blood (130 μl) the plates are incubated at 37 degrees (5% CO2) for 30 min before the addition of 10 μl of 2.8 ug/ml LPS, diluted in complete RPMI 1640 (final concentration=200 ng/ml), to give a total volume of 140 μl per well. After further incubation for 24 hours at 37 degrees, 140 μl of PBS are added to each well. The plates are sealed, shaken for 10 minutes and then centrifuged (2500 rpm×10 min). 100 μl of the supernatant are removed and IL-6 levels assayed by immunoassay (typically by MesoScale Discovery technology) either immediately or following storage at −20 degrees. Concentration response curves for each compound was generated from the data and an IC50 value was calculated.
`CC(=O)N1c2ccc(-c3ccc(CCC(=O)NCCO)cc3)cc2[C@H](Nc2ccc(C#N)cn2)C[C@@H]1C` [Example 2, 3-(4-((2S,4R)-1-Acetyl-4-((5-cyanopyridin-2-yl)amino)-2-methyl-1,2,3,4-tetrahydroquinolin-6-yl)phenyl)-N-(2-hydroxyethyl)propanamide] had an IC50 of 0.0501 to 3.16 µM.
To `CC(=O)N1c2ccc(-c3ccc(CC(=O)NCCO)cc3)cc2[C@H](Nc2ccc(C#N)cn2)C[C@@H]1C` [Example 3, 2-(4-((2S,4R)-1-Acetyl-4-((5-cyanopyridin-2-yl)amino)-2-methyl-1,2,3,4-tetrahydroquinolin-6-yl)phenyl)-N-(2-hydroxyethyl)acetamide] belongs 0.0501 to 3.16 µM; to `CC(=O)N1c2ccc(-c3ccc(CC(=O)NCCN(C)C)cc3)cc2[C@H](Nc2ccc(C#N)cn2)C[C@@H]1C` [Example 5, 2-(4-((2S,4R)-1-Acetyl-4-((5-cyanopyridin-2-yl)amino)-2-methyl-1,2,3,4-tetrahydroquinolin-6-yl)phenyl)-N-(2-(dimethylamino)ethyl)acetamide], 0.0501 to 3.16 µM; to `CC(=O)N1c2ccc(-c3ccc(C(=O)NCCN)cc3)cc2[C@H](NC(=O)OC(C)C)C[C@@H]1C` [Example 6, Isopropyl ((2S,4R)-1-acetyl-6-(4-((2-aminoethyl)carbamoyl)phenyl)-2-methyl-1,2,3,4-tetrahydroquinolin-4-yl)carbamate hydrochloride], 0.0501 to 3.16 µM.
To `CC(=O)N1c2ccc(-c3ccc(C(=O)NCCN(C)C)cc3)cc2[C@H](NC(=O)OC(C)C)C[C@@H]1C` [Example 7, Isopropyl ((2S,4R)-1-acetyl-6-(4-((2-(dimethylamino)ethyl)carbamoyl)phenyl)-2-methyl-1,2,3,4-tetrahydroquinolin-4-yl)carbamate] belongs 0.0501 to 3.16 µM.
The figure for `CC(=O)N1c2ccc(-c3ccc(CC(=O)NCCN)cc3)cc2[C@H](NC(=O)OC(C)C)C[C@@H]1C` [Example 9, Isopropyl ((2S,4R)-1-acetyl-6-(4-(2-((2-aminoethyl)amino)-2-oxoethyl)phenyl)-2-methyl-1,2,3,4-tetrahydroquinolin-4-yl)carbamate hydrochloride] is 0.0501 to 3.16 µM.
The compound `CC(=O)N1c2ccc(-c3ccc(C(=O)NCCN(C)C)cn3)cc2[C@H](Nc2ccc(C#N)cn2)C[C@@H]1C` [Example 10, 6-((2S,4R)-1-acetyl-4-((5-cyanopyridin-2-yl)amino)-2-methyl-1,2,3,4-tetrahydroquinolin-6-yl)-N-(2-(dimethylamino)ethyl)nicotinamide] showed an IC50 of 0.0501 to 3.16 µM.
The figure for `CC(=O)N1c2ccc(-c3ccc(C(=O)NC(CO)CO)cn3)cc2[C@H](Nc2ccc(C#N)cn2)C[C@@H]1C` [Example 11, 6-((2S,4R)-1-acetyl-4-((5-cyanopyridin-2-yl)amino)-2-methyl-1,2,3,4-tetrahydroquinolin-6-yl)-N-(1,3-dihydroxypropan-2-yl)nicotinamide] is 0.0501 to 3.16 µM; for `CC(=O)N1c2ccc(-c3ccc(C(=O)NCCO)cn3)cc2[C@H](Nc2ccc(C#N)cn2)C[C@@H]1C` [Example 12, 6-((2S,4R)-1-acetyl-4-((5-cyanopyridin-2-yl)amino)-2-methyl-1,2,3,4-tetrahydroquinolin-6-yl)-N-(2-hydroxyethyl)nicotinamide] it is 0.0501 to 3.16 µM.
The figure for `CC(=O)N1c2ccc(-c3ccc(C(=O)NCCO)cc3)cc2[C@H](Nc2ccc(C#N)cn2)C[C@@H]1C` [Example 14, 4-((2S,4R)-1-acetyl-4-((5-cyanopyridin-2-yl)amino)-2-methyl-1,2,3,4-tetrahydroquinolin-6-yl)-N-(2-hydroxyethyl)benzamide] is 0.0501 to 3.16 µM; for `CC(=O)N1c2ccc(-c3ccc(C(=O)NC(CO)CO)cc3)cc2[C@H](Nc2ccc(C#N)cn2)C[C@@H]1C` [Example 15, 4-((2S,4R)-1-acetyl-4-((5-cyanopyridin-2-yl)amino)-2-methyl-1,2,3,4-tetrahydroquinolin-6-yl)-N-(1,3-dihydroxypropan-2-yl)benzamide] it is 0.0501 to 3.16 µM; for `CC(=O)N1c2ccc(-c3ccc(C(=O)NCCN(C)C)cc3)cc2[C@H](Nc2ccc(C#N)cn2)C[C@@H]1C` [Example 16, 4-((2S,4R)-1-acetyl-4-((5-cyanopyridin-2-yl)amino)-2-methyl-1,2,3,4-tetrahydroquinolin-6-yl)-N-(2-(dimethylamino)ethyl)benzamide dihydrochloride] it is 0.0501 to 3.16 µM.
To `CC(=O)N1c2ccc(-c3ccc(C(=O)NCCO)cc3)cc2[C@H](Nc2ccccn2)C[C@@H]1C` [Example 19, 4-((2S,4R)-1-acetyl-2-methyl-4-(pyridin-2-ylamino)-1,2,3,4-tetrahydroquinolin-6-yl)-N-(2-hydroxyethyl)benzamide] belongs 0.0501 to 3.16 µM; to `CC(=O)N1c2ccc(-c3ccc(C(=O)NCCN(C)C)cc3)cc2[C@H](Nc2ccccn2)C[C@@H]1C` [Example 20, 4-((2S,4R)-1-acetyl-2-methyl-4-(pyridin-2-ylamino)-1,2,3,4-tetrahydroquinolin-6-yl)-N-(2-(dimethylamino)ethyl)benzamide], 0.0501 to 3.16 µM; to `CC(=O)N1c2ccc(-c3ccc(C(=O)NC(CO)CO)cc3)cc2[C@H](Nc2ccccn2)C[C@@H]1C` [Example 21, 4-((2S,4R)-1-acetyl-2-methyl-4-(pyridin-2-ylamino)-1,2,3,4-tetrahydroquinolin-6-yl)-N-(1,3-dihydroxypropan-2-yl)benzamide], 0.0501 to 3.16 µM.
The compound `CC(=O)N1c2ccc(-c3ccc(C(=O)NCCN)cc3)cc2[C@H](Nc2ccccn2)C[C@@H]1C` [Example 22, 4-((2S,4R)-1-acetyl-2-methyl-4-(pyridin-2-ylamino)-1,2,3,4-tetrahydroquinolin-6-yl)-N-(2-aminoethyl)benzamide] had an IC50 of 0.0501 to 3.16 µM.
To `CC(=O)N1c2ccc(-c3ccc(C(=O)NCCN(C)C)cn3)cc2[C@H](Nc2ccccn2)C[C@@H]1C` [Example 23, 6-((2S,4R)-1-acetyl-2-methyl-4-(pyridin-2-ylamino)-1,2,3,4-tetrahydroquinolin-6-yl)-N-(2-(dimethylamino)ethyl)nicotinamide] belongs 0.0501 to 3.16 µM; to `CC(=O)N1c2ccc(-c3ccc(C(=O)NCCO)cn3)cc2[C@H](Nc2ccccn2)C[C@@H]1C` [Example 24, 6-((2S,4R)-1-acetyl-2-methyl-4-(pyridin-2-ylamino)-1,2,3,4-tetrahydroquinolin-6-yl)-N-(2-hydroxyethyl)nicotinamide], 0.0501 to 3.16 µM; to `CC(=O)N1c2ccc(-c3ccc(C(=O)NC(CO)CO)cn3)cc2[C@H](Nc2ccccn2)C[C@@H]1C` [Example 25, 6-((2S,4R)-1-acetyl-2-methyl-4-(pyridin-2-ylamino)-1,2,3,4-tetrahydroquinolin-6-yl)-N-(1,3-dihydroxypropan-2-yl)nicotinamide], 0.0501 to 3.16 µM.
Compound `CC(=O)N1c2ccc(-c3ccc(C(=O)NCCN(C)C)nc3)cc2[C@H](Nc2ccc(C#N)cn2)C[C@@H]1C` [Example 28, 5-((2S,4R)-1-acetyl-4-((5-cyanopyridin-2-yl)amino)-2-methyl-1,2,3,4 tetrahydroquinolin-6-yl)-N-(2-(dimethylamino)ethyl)picolinamide] gave an IC50 of 0.0501 to 3.16 µM.
The figure for `CC(=O)N1c2ccc(-c3ccc(C(=O)NCCO)nc3)cc2[C@H](Nc2ccc(C#N)cn2)C[C@@H]1C` [Example 29, 5-((2S,4R)-1-acetyl-4-((5-cyanopyridin-2-yl)amino)-2-methyl-1,2,3,4-tetrahydroquinolin-6-yl)-N-(2-hydroxyethyl)picolinamide] is 0.0501 to 3.16 µM.
The figure for `CC(=O)N1c2ccc(-c3ccc(C(=O)NC(CO)CO)nc3)cc2[C@H](Nc2ccc(C#N)cn2)C[C@@H]1C` [Example 30, 5-((2S,4R)-1-acetyl-4-((5-cyanopyridin-2-yl)amino)-2-methyl-1,2,3,4tetrahydroquinolin-6-yl)-N-(1,3-dihydroxypropan-2-yl)picolinamide] is 0.0501 to 3.16 µM; for `CC(=O)N1c2ccc(-c3ccc(C(=O)NCCCO)nc3)cc2[C@H](Nc2ccc(C#N)cn2)C[C@@H]1C` [Example 31, 5-((2S,4R)-1-acetyl-4-((5-cyanopyridin-2-yl)amino)-2-methyl-1,2,3,4-tetrahydroquinolin-6-yl)-N-(3-hydroxypropyl)picolinamide] it is 0.0501 to 3.16 µM; for `CC(=O)N1c2ccc(-c3ccc(C(=O)N[C@H](C)CO)nc3)cc2[C@H](Nc2ccc(C#N)cn2)C[C@@H]1C` [Example 32, 5-((2S,4R)-1-acetyl-4-((5-cyanopyridin-2-yl)amino)-2-methyl-1,2,3,4-tetrahydroquinolin-6-yl)-N—((R)-1-hydroxypropan-2-yl)picolinamide] it is 0.0501 to 3.16 µM.
The figure for `CC(=O)N1c2ccc(-c3ccc(C(=O)N4CCN(C)CC4)nc3)cc2[C@H](Nc2ccc(C#N)cn2)C[C@@H]1C` [Example 34, 6-(((2S,4R)-1-acetyl-2-methyl-6-(6-(4-methylpiperazine-1-carbonyl)pyridin-3-yl)-1,2,3,4-tetrahydroquinolin-4-yl)amino)nicotinonitrile] is 0.0501 to 3.16 µM; for `CC(=O)N1c2ccc(-c3ccc(C(=O)N4CC(N)C4)nc3)cc2[C@H](Nc2ccc(C#N)cn2)C[C@@H]1C` [Example 37, 6-(((2S,4R)-1-acetyl-6-(6-(3-aminoazetidine-1-carbonyl)pyridin-3-yl)-2-methyl-1,2,3,4-tetrahydroquinolin-4-yl)amino)nicotinonitrile] it is 0.0501 to 3.16 µM.
